We go through 1 molecule from publication PMC6582940 (Molecular pharmaceutics, 2018).

Counter-ions that a name gives are not always drawn.

This test has as its target ABCB1 (Homo sapiens, UniProt P08183). Nature of the test: competition of […]IAAP photoaffinity labeling in ABCB1 membranes. The format is binding.

Chain of ABCB1 (P08183 whole entry): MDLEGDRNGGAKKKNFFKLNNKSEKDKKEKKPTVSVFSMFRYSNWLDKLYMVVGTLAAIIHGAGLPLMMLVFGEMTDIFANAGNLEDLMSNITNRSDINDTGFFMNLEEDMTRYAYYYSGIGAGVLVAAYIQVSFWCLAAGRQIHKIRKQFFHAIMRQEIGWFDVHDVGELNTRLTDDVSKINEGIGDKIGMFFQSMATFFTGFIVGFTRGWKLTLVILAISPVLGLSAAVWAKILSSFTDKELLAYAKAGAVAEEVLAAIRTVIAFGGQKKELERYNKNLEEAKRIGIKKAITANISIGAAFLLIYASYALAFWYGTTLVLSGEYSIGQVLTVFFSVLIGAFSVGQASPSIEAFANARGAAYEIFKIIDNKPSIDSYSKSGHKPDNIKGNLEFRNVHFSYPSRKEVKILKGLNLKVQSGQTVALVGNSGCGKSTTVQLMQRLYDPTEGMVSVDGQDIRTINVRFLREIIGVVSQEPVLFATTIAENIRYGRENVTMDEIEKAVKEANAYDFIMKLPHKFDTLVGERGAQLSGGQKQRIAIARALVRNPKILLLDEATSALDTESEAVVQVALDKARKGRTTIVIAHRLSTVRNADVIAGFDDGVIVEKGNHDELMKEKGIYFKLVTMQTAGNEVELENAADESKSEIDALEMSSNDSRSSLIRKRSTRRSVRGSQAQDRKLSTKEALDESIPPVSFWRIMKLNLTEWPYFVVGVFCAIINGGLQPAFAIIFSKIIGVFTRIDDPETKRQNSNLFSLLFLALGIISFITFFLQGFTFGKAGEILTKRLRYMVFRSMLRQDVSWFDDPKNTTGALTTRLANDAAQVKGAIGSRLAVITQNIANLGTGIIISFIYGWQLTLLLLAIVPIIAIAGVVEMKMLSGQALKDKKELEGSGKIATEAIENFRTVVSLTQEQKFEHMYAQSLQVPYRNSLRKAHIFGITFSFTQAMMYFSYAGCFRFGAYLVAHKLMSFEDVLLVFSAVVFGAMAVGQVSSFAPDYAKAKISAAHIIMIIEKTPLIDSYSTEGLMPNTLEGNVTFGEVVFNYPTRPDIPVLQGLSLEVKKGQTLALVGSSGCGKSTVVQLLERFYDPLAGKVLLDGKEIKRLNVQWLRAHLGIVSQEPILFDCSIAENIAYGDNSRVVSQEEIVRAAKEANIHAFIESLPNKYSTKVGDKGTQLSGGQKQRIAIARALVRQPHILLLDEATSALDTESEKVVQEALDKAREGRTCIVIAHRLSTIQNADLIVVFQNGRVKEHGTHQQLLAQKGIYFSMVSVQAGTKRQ

Usually IC50 stands for the point on the concentration scale where inhibition reaches its midpoint. Low values mean inhibition by little substance, high ones a need for much substance. On to `COc1ccc(CCC2c3cc(OCc4ccccc4)c(OC)cc3CCN2C)cc1OCc1ccccc1` (racemic) [isoquinoline 2, (±)-7-benzyloxy-1-(3-benzyloxy-4-methoxyphenethyl)-1,2,3,4-tetrahydro-6-methoxy-2-methylisoquinoline oxalate], for which the IC50 was determined as 63 ± 12 nM.
